Data: ChEMBL document CHEMBL1156024, “The first Hes1 dimer inhibitors from natural products” (Bioorg Med Chem Lett, 2009)
The source made the active and inactive calls. No cut-off for these calls is given here.

How the values were obtained:
[1] = biological target: T1, Transcription factor HES-1 (Mus musculus, UniProt P35428); test: Inhibition of Cy3-labeled mouse recombinant Hes1 (3-281) dimer formation expressed in Escherichia coli by microplate-based assay
T1 sequence (P35428 whole entry): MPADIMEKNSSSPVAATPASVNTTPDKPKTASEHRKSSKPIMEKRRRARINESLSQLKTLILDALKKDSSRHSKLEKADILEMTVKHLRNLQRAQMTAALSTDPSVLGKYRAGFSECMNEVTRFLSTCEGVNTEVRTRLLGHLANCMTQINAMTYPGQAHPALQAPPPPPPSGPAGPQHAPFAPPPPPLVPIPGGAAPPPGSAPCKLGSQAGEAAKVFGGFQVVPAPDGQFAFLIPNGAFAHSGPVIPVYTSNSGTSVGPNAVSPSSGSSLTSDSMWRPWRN

[2] = biological target: T2, Transcription factor HES-1 (Mus musculus) (UniProt P35428); test: Inhibition of Cy3-labeled mouse recombinant Hes1 (3-281) dimer formation expressed in Escherichia coli at 100 uM by microplate-based assay
T2 sequence (whole entry): T1 sequence (P35428 whole entry)

[3] = biological target: T2, Transcription factor HES-1 (Mus musculus); conditions: C3H 10T1/2, 50 uM
Description: Inhibition of mouse Hes1-mediated suppression of basic helix-loop-helix activator genes in C3H10T1/2 cells at 50 uM by luciferase transactivation assay

| Compound | IC50 [1] | inhibition [2] | inhibition [3] |
| --- | --- | --- | --- |
| C/C=C1/[C@H]2OC=C(C(=O)O)[C@H]1CC(=O)OC[C@H](c1ccc(O)c(O)c1)OC[C@H]1O[C@@H](O2)[C@H](O)[C@@H](O)[C@@H]1O | 7.8 µM |  |  |
| COC(=O)c1[nH]c(C(=O)O)c(-c2c[nH]c3ccccc23)c1-c1c[nH]c2ccccc12 |  | inactive |  |
| COC(=O)c1[nH]c(C(=O)OC)c(-c2c[nH]c3ccccc23)c1-c1c[nH]c2ccccc12 |  | inactive |  |
| O=C1NCc2c1c1c3ccccc3[nH]c1c1[nH]c3ccccc3c21 |  | inactive |  |
| CCCC(=O)/C=C/C1=C(O)C(=O)c2cc(O)c(O)cc2C1=O [LINDBLADIONE] | 4.1 µM |  | 60% |
| O=C(O)c1[nH]c(C(=O)O)c(-c2c[nH]c3ccccc23)c1-c1c[nH]c2ccccc12 [LYCOGALIC ACID A] | 6 µM |  | 60% |
| COC(=O)c1[nH]c(C(=O)OC)c(-c2c[nH]c3ccc(O)cc23)c1-c1c[nH]c2ccccc12 [LYCOGARUBIN B] | 16.5 µM |  |  |
| COc1cc([C@H]2c3c(cc(OC)c(O)c3OC)C[C@@H](CO)[C@@H]2CO[C@@H]2OC[C@@H](O)[C@H](O)[C@H]2O)cc(OC)c1O [LYONISIDE] | 48.1 µM |  |  |
| COc1cc([C@@H]2c3c(cc(OC)c(O)c3OC)C[C@H](CO)[C@H]2CO[C@@H]2OC[C@@H](O)[C@H](O)[C@H]2O)cc(OC)c1O [NUDIPOSIDE] | 9.6 µM |  |  |
